Source: US20020031787A1, “Compositions and methods for reducing autoimmunity” (priority 2000, published 2002)
Where no end group is shown, it is not given here.

Tested on: NOD mice
Conditions: mouse, in vivo

With “insulin B chain 8-20 amino acid peptide (GSHLVEALYLVCG; ends and bridges not checked; UniProt P01308 32-44, looked up, fragment) [islet cell antigen peptide added to the vaccines]” the “effect of the vaccines on diabetes when the peptide was added” value was “enhanced”.
